Reference: patent US20140336159A1, “METHODS FOR TREATING AND DIAGNOSING RESPIRATORY TRACT INFECTIONS” (PULMATRIX, INC., priority 2011, published 2014)

What was measured:
[1] = test system: LPS stimulated peritoneal macrophages (TRPV channels); assay: Cytokine secretion by LPS stimulated macrophages treated with TRPV channel antagonists; type: cell-based, mouse
Description: The transient receptor potential V (TRPV) family of ion channels is sensitive to osmotic changes and has an intimate relationship with levels of intracellular calcium. […] In order to determine the influence of TRPV channels Ruthenium red, a potent, broad acting TRPV channel antagonist was used. […] The results can be seen in FIG. 20A. […] Following two hours, supernatants were collected for LUMINEX analysis of inflammatory cytokines. […] However, while treatment with SKF96365 did have an effect on LPS stimulated macrophages, it was not as pronounced as that of treatment with ruthenium red.

[2] = test system: Influenza A/WSN/33/1; type: cell-based
[3] = test system: human macrophages; assay: Cytokine secretion by LPS stimulated human monocyte-derived macrophages (normal and COPD-derived); type: cell-based; conditions: 10 ng/ml LPS, 2 hours; for LPS induced cytokine production (IL-8, IL-6): human macrophages, salts 0-50 mM
Description: Normal and COPD-derived human monocytes were differentiated into macrophage derived monocytes in culture for 7 days. Cells were thawed following storage in liquid nitrogen, and then plated at 2.0-2.5×10^5 cells/well (in 0.2 ml per well) in IMDM cell culture media containing 10% human serum and human GM-CSF (50 ng/ml). On day 7, assays were performed on the cells, using media containing serum but no GM-CSF. Cells were stimulated with 10 ng/ml LPS, and exposed to calcium chloride concentrations of either 10 or 25 mM. Following two hours, supernatants were collected for LUMINEX analysis of IL-8, IL-6, TNF alpha and MIP-1 alpha (FIG. 17A), IL-8 only for COPD (FIG. 17B). […] Calcium chloride reduced LPS induced inflammation in normal and COPD-derived human monocyte-derived macrophages.
(§1) To determine the effects of alternating the cation in the calcium chloride salt, LPS stimulated human or mouse macrophages were exposed to alternative divalent and monovalent cations, magnesium chloride and sodium chloride, as well as an alternative […] anion, calcium lactate. Normal human monocytes were differentiated into macrophage derived monocytes in culture for 7 days as described in Example 16, and perotineal derived mouse macrophages were described in Example 15. Following two hours of incubation with LPS (10 ng/ml) and the appropriate salt concentration, supernatants were collected for LUMINEX protein analysis of inflammatory cytokines.

[4] = test system: LPS stimulated peritoneal macrophages; assay: Cytokine secretion by LPS stimulated peritoneal macrophages; type: cell-based, mouse (C57BL/6); conditions: for LPS induced inflammatory mediator secretion (KC, IL-6): mouse macrophages, 10 ng/ml LPS, 2 hours, salts 0-50 mM
Description: Macrophages represent a key component of the innate immune system. Alveolar macrophages are thought to play a central role in disease pathogenesis by secreting pro-inflammatory cytokines and chemokines in the context of both chronic obstructive pulmonary disease (COPD) and cystic fibrosis (CF), two respiratory illnesses involving airway inflammation. It was hypothesized that given the prominent role of alveolar macrophages in LPS induced lung inflammation, it may be possible that Ca^2+-ion containing formulations directly influence the inflammatory response of the macrophage after LPS exposure. In order to test this hypothesis in-vitro, murine peritoneal macrophages were isolated. C57BL/6 female mice were anesthetized using isofluorane inhalant. […] To confirm macrophage phenotype, a cytospin preparation was performed. Cells were cultured in DMEM:F12 overnight. The following day the media was removed and the macrophages were exposed to media supplemented with varying concentrations of LPS (1 ng/ml to 1 microgram/ml), a dose range of supplemental calcium chloride (5 mM to 50 mM) as well as a dose range of calcium chloride in the presence of LPS for 2 hours. After 2 hours in culture the media was collected for analysis of inflammatory cytokines using LUMINEX® Multiplex immunoassays (Invitrogen/Life Technologies, Grand Island, N.Y.) and BIO-PLEX MANAGER™ software (Version 6) (Bio-Rad, Hercules, Calif.). Presto blue or trypan blue assays were used to determine cell viability. […] The media content for 3 representative inflammatory mediators (IL-6, KC and TNF-alpha) cultured under LPS free conditions (unstimulated) as well as cells exposed to 1 ng/ml LPS were analyzed.
as §1

[5] = target: TLR 5 (Mus musculus, UniProt Q9JLF7); conditions: TLR 5 ligand; negative values indicate increased KC
Sequence of TLR 5 (Q9JLF7 27-859): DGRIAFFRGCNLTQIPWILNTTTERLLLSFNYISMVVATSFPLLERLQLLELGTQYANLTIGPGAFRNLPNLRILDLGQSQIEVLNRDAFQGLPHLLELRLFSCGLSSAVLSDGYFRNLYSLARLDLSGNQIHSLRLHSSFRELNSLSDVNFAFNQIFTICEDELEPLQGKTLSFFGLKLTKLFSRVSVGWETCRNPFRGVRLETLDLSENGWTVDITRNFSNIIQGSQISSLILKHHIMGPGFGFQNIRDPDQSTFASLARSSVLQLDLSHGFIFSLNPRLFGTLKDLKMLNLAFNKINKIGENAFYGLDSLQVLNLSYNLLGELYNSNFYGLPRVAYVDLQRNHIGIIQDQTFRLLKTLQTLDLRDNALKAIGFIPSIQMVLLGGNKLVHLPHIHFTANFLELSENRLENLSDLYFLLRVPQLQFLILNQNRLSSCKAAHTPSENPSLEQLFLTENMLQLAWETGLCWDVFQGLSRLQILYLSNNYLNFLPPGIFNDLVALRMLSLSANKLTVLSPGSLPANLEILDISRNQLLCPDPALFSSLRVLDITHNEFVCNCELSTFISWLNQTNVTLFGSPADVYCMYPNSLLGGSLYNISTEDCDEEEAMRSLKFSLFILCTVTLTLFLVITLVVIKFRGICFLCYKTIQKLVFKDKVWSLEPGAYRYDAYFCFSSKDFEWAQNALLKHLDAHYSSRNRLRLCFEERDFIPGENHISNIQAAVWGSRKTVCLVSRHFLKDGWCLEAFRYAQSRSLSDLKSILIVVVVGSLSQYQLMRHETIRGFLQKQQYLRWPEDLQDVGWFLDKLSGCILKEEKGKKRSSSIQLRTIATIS
Description: (§2) It was hypothesized that calcium likely alters the immune response to LPS and possibly other TLR receptors in alveolar macrophages. To test this hypothesis, primary macrophages were isolated from mice. Briefly, C57BL/6 female mice were anesthetized using isofluorane inhalant. Animals were injected i.p. with 1.5 ml thioglycollate. Three to four days post injection mice were euthanized using CO2 to harvest peritoneal macrophages. Under sterile conditions, the abdominal wall was exposed and the peritoneal cavity was injected with 7 ml of lavage media, which was immediately recovered back into the syringe and deposited into a 50 mL conical tube. The peritoneal cavity was opened and the residual lavage media was recovered. Cell suspensions were centrifuged at 1200 rpm (RT-6000) for 8-10 minutes. The supernatant was removed and cell pellets were resuspended in 1-2 ml lysis buffer, incubated at room temperature (RT) for 1-2 minutes, and resuspended in18-19 ml cell culture media (DMEM/F-12). Cells were again centrifuged, supernatants were removed, the cell pellets were pooled, washed once more in cell culture media, centrifuged, and resuspended in 10 ml cell culture media, and cells were counted using a hemocytometer. To confirm macrophage phenotype, a cytospin preparation was performed. Cells were cultured in DMEM:F12 overnight. Cells were then stimulated with agonists to TLR4 (LPS or LipidA), TLR1/2 (pam3CSK4), TLR2/6 (FLS-1), TLR2 (LT-SA), TLR3 (Poly I:C), TLR 5 (Flagellin), TLR7 (Gardiquimod or Loxoribine) and TLR9 (CPG-ODN) ligands with 0, 10 or 25 mM calcium chloride supplemented to the media.

[6] = target: TLR1/2 (Mus musculus, UniProt Q9EPQ1+Q9QUN7); conditions: TLR 1/2 ligand; negative values indicate increased KC
Sequence of TLR1/2 (Q9EPQ1 26-795): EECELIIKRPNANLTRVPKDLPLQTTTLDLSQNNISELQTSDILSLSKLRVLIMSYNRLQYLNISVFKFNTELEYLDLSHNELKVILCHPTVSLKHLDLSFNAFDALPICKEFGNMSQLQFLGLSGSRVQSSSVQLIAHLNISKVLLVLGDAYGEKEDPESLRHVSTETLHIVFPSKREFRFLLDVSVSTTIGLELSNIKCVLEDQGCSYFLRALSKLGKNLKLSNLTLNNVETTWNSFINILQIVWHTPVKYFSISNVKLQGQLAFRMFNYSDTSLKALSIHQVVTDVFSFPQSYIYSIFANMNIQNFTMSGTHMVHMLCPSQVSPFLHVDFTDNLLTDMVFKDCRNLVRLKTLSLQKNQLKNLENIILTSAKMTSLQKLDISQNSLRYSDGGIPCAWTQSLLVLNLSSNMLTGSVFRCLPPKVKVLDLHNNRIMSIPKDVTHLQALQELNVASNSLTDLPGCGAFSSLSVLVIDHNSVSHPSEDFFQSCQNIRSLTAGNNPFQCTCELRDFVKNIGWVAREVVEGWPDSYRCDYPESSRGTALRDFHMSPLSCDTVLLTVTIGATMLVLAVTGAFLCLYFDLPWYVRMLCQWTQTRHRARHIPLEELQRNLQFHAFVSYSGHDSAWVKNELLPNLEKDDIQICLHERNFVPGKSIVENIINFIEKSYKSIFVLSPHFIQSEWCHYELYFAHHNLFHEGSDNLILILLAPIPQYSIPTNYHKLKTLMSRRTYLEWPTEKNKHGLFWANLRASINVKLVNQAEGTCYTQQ
Sequence of TLR1/2 (Q9QUN7 25-784): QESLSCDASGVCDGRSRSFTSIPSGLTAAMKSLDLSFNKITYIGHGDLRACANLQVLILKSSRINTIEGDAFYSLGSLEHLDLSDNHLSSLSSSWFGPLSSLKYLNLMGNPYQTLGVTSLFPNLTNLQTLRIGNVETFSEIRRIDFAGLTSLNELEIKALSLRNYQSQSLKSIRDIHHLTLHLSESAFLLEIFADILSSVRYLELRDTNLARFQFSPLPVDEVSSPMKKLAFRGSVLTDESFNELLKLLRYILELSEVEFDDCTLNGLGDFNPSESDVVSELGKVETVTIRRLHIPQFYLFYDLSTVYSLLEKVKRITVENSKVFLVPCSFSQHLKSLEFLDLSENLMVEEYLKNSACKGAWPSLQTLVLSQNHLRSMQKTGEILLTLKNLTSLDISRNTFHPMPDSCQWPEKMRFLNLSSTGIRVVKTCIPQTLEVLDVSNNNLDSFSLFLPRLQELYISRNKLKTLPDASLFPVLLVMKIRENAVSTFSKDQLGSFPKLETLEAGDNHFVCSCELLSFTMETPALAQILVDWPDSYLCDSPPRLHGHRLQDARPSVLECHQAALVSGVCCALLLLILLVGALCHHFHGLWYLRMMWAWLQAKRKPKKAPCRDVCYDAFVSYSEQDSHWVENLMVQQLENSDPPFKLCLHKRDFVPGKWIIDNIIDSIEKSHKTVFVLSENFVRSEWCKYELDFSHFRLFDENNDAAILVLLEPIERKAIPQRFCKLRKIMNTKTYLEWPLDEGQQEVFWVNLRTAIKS
Description: as §2

[7] = target: TLR3 (Mus musculus, UniProt Q99MB1); conditions: TLR 3 ligand; negative values indicate increased KC
Description: as §2

[8] = target: TLR9 (Mus musculus, UniProt Q9EQU3); conditions: TLR 9 ligand; negative values indicate increased KC
Sequence of TLR9 (Q9EQU3 26-1032): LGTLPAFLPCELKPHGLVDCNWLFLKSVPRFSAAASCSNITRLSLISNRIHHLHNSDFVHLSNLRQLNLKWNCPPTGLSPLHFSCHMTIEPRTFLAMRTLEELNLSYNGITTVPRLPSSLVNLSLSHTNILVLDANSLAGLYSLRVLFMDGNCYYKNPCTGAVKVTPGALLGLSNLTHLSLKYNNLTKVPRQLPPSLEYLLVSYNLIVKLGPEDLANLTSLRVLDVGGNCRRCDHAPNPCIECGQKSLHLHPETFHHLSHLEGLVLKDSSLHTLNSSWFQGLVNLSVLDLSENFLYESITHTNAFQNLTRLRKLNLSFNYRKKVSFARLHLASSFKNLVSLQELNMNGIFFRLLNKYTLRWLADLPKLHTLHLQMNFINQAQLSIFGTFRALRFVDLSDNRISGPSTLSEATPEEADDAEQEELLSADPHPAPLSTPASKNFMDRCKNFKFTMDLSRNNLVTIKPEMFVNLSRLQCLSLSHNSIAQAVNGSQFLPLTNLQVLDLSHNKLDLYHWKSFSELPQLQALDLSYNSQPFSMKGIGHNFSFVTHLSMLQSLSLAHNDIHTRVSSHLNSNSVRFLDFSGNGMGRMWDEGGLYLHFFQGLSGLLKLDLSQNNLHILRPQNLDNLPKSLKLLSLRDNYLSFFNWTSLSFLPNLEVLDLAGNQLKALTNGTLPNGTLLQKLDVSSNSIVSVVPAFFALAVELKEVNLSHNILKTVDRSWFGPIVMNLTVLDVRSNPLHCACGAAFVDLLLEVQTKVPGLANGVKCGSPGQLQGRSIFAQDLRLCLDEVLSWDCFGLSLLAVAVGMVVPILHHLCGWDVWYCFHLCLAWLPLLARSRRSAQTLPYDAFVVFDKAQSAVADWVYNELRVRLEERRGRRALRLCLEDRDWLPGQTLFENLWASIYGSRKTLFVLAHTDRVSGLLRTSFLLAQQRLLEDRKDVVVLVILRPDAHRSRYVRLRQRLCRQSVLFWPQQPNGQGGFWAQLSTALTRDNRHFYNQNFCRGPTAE
Description: as §2

[9] = target: TLR2 (Mus musculus, UniProt Q9QUN7); conditions: TLR 2 ligand; negative values indicate increased KC
Sequence of TLR2 (Q9QUN7 25-784): as the sequence (Q9QUN7 25-784) above
Description: as §2

[10] = target: TLR7 (Mus musculus, UniProt P58681); conditions: TLR 7 ligand; negative values indicate increased KC
Description: as §2

[11] = target: TLR2/6 (Mus musculus, UniProt Q9EPW9+Q9QUN7); conditions: TLR 2/6 ligand; negative values indicate increased KC
Description: as §2

[12] = target: TLR4 (Mus musculus, UniProt Q9QUK6); conditions: TLR 4 ligand; negative values indicate increased KC
Sequence of TLR4 (Q9QUK6 26-835): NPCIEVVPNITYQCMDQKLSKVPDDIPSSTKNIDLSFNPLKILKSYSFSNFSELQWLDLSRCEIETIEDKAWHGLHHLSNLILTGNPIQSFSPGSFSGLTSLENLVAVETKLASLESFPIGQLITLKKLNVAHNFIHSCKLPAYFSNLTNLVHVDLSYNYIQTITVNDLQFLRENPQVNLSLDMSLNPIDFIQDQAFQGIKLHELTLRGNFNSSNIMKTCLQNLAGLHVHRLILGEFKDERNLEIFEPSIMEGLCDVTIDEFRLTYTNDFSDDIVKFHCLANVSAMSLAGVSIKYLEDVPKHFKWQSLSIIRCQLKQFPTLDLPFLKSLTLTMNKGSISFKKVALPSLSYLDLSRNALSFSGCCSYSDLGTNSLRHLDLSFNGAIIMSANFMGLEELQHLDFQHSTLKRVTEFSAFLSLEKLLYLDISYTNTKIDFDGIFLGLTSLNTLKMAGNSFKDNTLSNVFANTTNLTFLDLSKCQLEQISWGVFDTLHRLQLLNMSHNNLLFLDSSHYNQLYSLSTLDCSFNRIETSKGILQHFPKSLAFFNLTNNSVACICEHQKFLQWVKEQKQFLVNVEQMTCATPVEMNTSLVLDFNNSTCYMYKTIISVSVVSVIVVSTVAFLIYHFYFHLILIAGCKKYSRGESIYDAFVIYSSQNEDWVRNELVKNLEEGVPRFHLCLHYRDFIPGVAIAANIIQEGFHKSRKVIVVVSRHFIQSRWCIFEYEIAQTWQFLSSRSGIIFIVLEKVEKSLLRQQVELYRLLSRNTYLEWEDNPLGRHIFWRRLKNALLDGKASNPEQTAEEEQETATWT
Sequence of TLR4 (Q9JHF9 19-160 partner): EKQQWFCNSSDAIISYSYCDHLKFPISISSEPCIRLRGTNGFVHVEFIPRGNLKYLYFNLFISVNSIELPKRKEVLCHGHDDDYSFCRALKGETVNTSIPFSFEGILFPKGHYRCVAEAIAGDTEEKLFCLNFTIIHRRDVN
Description: as §2

[13] = test system: LPS stimulated peritoneal macrophages
Description: Following 2 hours of incubation, cells were lysed, RNA was isolated, and a cDNA reaction was performed. RNA was harvested using the QIAGEN (Germantown, Md.) RNeasy® Plus Mini kit according to the manufacturer's Animal Cell Protocol (2005). RNA concentration and purity was determined by spectrophotometry using NANODROP 1000 spectrophotometer (Thermo Fisher Scientific, Wilmington, Del.). The expression of KC, IL-6, and TNF alpha were assessed by quantitative PCR. RNA expression levels of selected genes were quantified using the delta/delta C(t) (ΔΔCt) method using the expression of 18S as an internal reference for each sample. RNA was quantified by a two-step procedure in which RNA was converted to cDNA by reverse transcription using the iSCRIPT cDNA Synthesis kit from Bio-Rad followed by quantitative PCR (qPCR) using iQ SYBR Green Supermix from Bio-Rad.
The following cDNA synthesis reaction conditions were used: […]
The following quantitative PCR reaction conditions were used: […]
Data were collected and analyzed using the (delta/delta) ΔΔCt method. […] The fold change was then determined by the equation: 2^−ΔΔCt. […]

[14] = test system: macrophages stimulated with K. pneumoniae; conditions: 1×10^7 CFU/ml K. pneumoniae, 0, 5, 10, 25 mM, 2 hours
Description: (§3) To assess the level of bacterial induced inflammation in isolated peritoneal murine macrophages, isolated cells were placed in cell culture media and allowed to adhere to 96 well plates overnight. […] Following two hours of incubation, supernatants were collected for LUMINEX analysis of KC and TNF alpha with the results shown in FIG. 19.

[15] = test system: macrophages stimulated with S. pneumoniae; conditions: S. pneumoniae challenge, 0, 5, 10, 25 mM, 2 hours
Description: as §3

[16] = test system: neutrophils in the BAL; assay: Ozone exposure mouse model; type: in vivo, mouse (BALB/cJ); conditions: 100 microgram/kg intranasal
Description: Female wild-type (BALB/cJ) were obtained from The Jackson Laboratory (Bar Harbor. ME) at six weeks of age. Mice were treated with dry powder formulations Leucine (98% leucine, 2% sodium chloride) and Formulation II (75% calcium lactate, 20% leucine, 5% sodium chloride) in a temperature and humidity controlled room (30±5% RH and 20±2° C.) or administered liquid treatments of a p38 MAP kinase inhibitor (100 microgram/kg, Tocris SB203580), and USP-Grade Saline (0.9% NaCl), Cardinal Health via the intranasal route. Naïve mice were not exposed to dry powder treatment. One hour following the end of treatment, conscious mice were placed in a custom plastic exposure chamber (26 cm×16 cm×12 cm, Braintree Scientific) on a heated pad at 37° C. Ozone was generated via corona discharge using OZ-2AD Ozone Generator (Ozone Solutions, Hull, Iowa) and diluted with 2.0 LPM (liter per minute) of USP breathing air (MedTech, Medford, Mass.) to a concentration of 3 ppm. The concentration inside the exposure chamber was sampled continuously at 1.0 LPM using UV-106L Ozone Analyzer (Ozone Solutions, Hull, Iowa). Mice were exposed to ozone for 1 hour. Control mice were placed in static cages and exposed to ambient air for a duration matched to each ozone exposure. Mice were euthanized 4 hours following the end of the ozone or air exposure using a fatal dose of pentobarbital. BAL and cell counts were performed. […]

## COc1ccc(CCCOC(Cn2ccnc2)c2ccc(OC)cc2)cc1 (stereo not shown) [SKF 96365]
[1]; 5, 20, 50 micromolar, 10 ng/ml LPS, 2 hours
  KC and IL-6 concentrations: dose dependent decrease
[1]; 20 and 50 micromolar, 10 ng/ml LPS
  TNF alpha concentration: reduced at the highest two doses
[1]; 50 micromolar, 10 ng/ml LPS
  decrease in KC concentration: 51%
[1]; along with 10 mM calcium chloride, compared to calcium chloride alone
  KC and TNF alpha reduction: small increase

## CC(=O)N[C@H]1[C@H]([C@H](O)[C@H](O)CO)OC(C(=O)O)=C[C@@H]1N=C(N)N [Zanamivir, zanamivir]
[2]
  viral infection / Influenza titer versus untreated (Air) control: reduced viral infection in a dose responsive manner

## [Ca+2].[Cl-].[Cl-] [calcium chloride]
[3]; 25 mM, to near that of non-LPS challenged cells
  inflammatory cytokine secretion (IL-8, IL-6, TNF alpha, MIP-1 alpha; IL-8 only for COPD): significant decline
[3]
  LPS induced cytokine production (IL-8, IL-6): of lesser magnitude than calcium lactate but more potent than sodium chloride
[4]; 1 ng/ml LPS, 2 hours, 10, 25, 50 mM, compared to untreated (0) cells
  protein secretion of KC, IL-6 and TNF alpha: significantly reduced
[4]; Presto blue or trypan blue assays
  cell viability: generally did not affect cell viability
[4]
  LPS induced inflammatory mediator secretion (KC, IL-6): decreased
[4]; no LPS, increasing calcium chloride content
  inflammatory mediator release of unstimulated cells: mild increase
[5]
  % KC reduction at 10 mM calcium ion: 54 ± 6%
  % KC reduction at 25 mM calcium ion: 50 ± 2%
[6]
  % KC reduction at 10 mM calcium ion: −1 ± 9%
  % KC reduction at 25 mM calcium ion: −27 ± 58%
[7]
  % KC reduction at 10 mM calcium ion: 81 ± 7%
  % KC reduction at 25 mM calcium ion: 76 ± 16%
[8]
  % KC reduction at 10 mM calcium ion: −55 ± 51%
  % KC reduction at 25 mM calcium ion: −144%
[9]
  % KC reduction at 10 mM calcium ion: 46 ± 10%
  % KC reduction at 25 mM calcium ion: 85 ± 9%
[10]
  % KC reduction at 10 mM calcium ion: −10 ± 41%
  % KC reduction at 25 mM calcium ion: −20 ± 49%
[11]
  % KC reduction at 10 mM calcium ion: −25 ± 11%
  % KC reduction at 25 mM calcium ion: −51 ± 27%
[12]
  % KC reduction at 10 mM calcium ion: 68 ± 15%
  % KC reduction at 25 mM calcium ion: 75 ± 13%
[13]; 1 ng/ml LPS, 2 hours, 10, 25, 50 mM, compared to untreated (0)
  gene expression of KC, IL-6 and TNFα: significantly reduced
[13]; LPS stimulated
  NRIP1 gene expression: significantly reduced
[14]
  inflammatory mediator secretion (KC, TNF alpha): dose-dependent decrease
[15]
  inflammatory mediator secretion (KC, TNF alpha): little effect

## CC(O)C(=O)[O-].CC(O)C(=O)[O-].[Ca+2] (stereo not shown) [calcium lactate]
[3]
  LPS induced cytokine production (IL-8, IL-6): most profound effect
[4]
  LPS induced inflammatory mediator secretion (KC, IL-6): more profound effect

## [Cl-].[Cl-].[Mg+2] [magnesium chloride]
[3]
  LPS induced cytokine production (IL-8, IL-6): of lesser magnitude than calcium lactate but more potent than sodium chloride
[4]
  LPS induced inflammatory mediator secretion (KC, IL-6): some activity

## C[S+]([O-])c1ccc(-c2nc(-c3ccncc3)c(-c3ccc(F)cc3)[nH]2)cc1 (stereo not shown) [p38 MAP kinase inhibitor]
[16]
  pulmonary total cell response to ozone exposure: significantly inhibited

## N.N.N.N.N.N.N.N.N.N.N.N.N.N.[Cl-].[Cl-].[Cl-].[Cl-].[Cl-].[Cl-].[O-2].[O-2].[Ru+3].[Ru+3].[Ru+4] [ruthenium red]
[1]; in the presence of 10 mM calcium chloride, 1 ng/ml LPS
  decrease in KC concentration: further enhanced
[1]; ruthenium red alone (1, 5, 10, 20 micromolar), 1 ng/ml LPS, 2 hours
  decrease in KC concentration: more than 50%

## [Cl-].[Na+] [sodium chloride, reference compound]
[3]
  LPS induced cytokine production (IL-8, IL-6): little influence
[4]
  LPS induced inflammatory mediator secretion (KC, IL-6): little influence
